Laboratory results taken from patent US20260184693A1, “INHIBITORS OF SOLUTE CARRIER FAMILY 6A MEMBER 19 (SLC6A19) AND METHODS OF USE THEREOF” (Maze Therapeutics, Inc., priority 2022, published 2026).

Biological target: T1, human SLC6A19 (Homo sapiens, UniProt Q695T7)
T1 construct: expressed in transfected cells
T1 sequence (Q695T7 1-634): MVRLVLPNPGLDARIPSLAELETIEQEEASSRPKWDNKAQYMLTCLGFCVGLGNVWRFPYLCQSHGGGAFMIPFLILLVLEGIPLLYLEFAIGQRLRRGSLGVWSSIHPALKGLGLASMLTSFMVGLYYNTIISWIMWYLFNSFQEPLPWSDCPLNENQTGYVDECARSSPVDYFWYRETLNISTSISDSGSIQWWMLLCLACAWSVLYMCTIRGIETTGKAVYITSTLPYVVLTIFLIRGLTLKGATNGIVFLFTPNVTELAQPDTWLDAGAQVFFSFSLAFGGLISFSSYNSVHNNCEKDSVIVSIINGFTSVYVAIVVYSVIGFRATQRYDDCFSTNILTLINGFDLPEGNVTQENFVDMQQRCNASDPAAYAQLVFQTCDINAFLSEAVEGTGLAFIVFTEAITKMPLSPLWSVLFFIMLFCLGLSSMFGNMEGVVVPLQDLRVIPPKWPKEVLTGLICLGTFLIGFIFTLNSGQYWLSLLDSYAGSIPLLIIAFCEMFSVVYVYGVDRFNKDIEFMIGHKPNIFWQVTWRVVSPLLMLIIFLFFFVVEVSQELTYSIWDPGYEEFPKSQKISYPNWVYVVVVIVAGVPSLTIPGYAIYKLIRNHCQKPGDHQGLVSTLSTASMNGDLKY
T1 sequence (Q9HBJ8 15-222 partner): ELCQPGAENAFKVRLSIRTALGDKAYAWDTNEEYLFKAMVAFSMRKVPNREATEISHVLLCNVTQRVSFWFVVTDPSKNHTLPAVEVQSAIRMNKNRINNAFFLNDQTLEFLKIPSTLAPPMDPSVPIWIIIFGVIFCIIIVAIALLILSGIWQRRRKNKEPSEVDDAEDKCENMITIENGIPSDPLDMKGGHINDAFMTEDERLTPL
Assay: Example B-1: L-[3H]leucine uptake, liquid scintillation, in CHO cells with doxycycline-inducible expression of human SLC6A19 and TMEM27
Format: cell-based
Conditions: read-out: SLC6A19_Radioligand Uptake Assay IC50
Protocol: CHO cells with doxycycline-inducible expression of human SLC6A19 and TMEM27 were maintained in T150 cell culture treated flasks using cell culture media, which consisted of 1×DMEM/F12 (Gibco, 11330057), 10% Tet System-Approved FBS (Gibco, A4736401), 100 U/mL Penicillin-Streptomycin (Gibco, 15140122), 1×GlutaMAX™ Supplement (Gibco, 35050061), 1 mM Sodium Pyruvate (Gibco, 11360070), 1.1 mg/mL Sodium Bicarbonate (Gibco, 25080094), 5 μg/mL Blasticidin (InvivoGen, ant-bl-1), 150 μg/mL Hygromycin B Gold (InvivoGen, ant-hg-5), and 500 μg/mL G418 (Sigma-Aldrich, G8168-100 mL). In preparation for the assay, this media was aspirated and 5 mL of TryμLE™ Express Enzyme (Gibco, 12605010) was added to each flask to initiate cell dissociation. The flasks were then incubated (humidified, 37° C. with 5% CO2) for 2 minutes. After incubation, 10 mL of pre-warmed cell culture media was added to each flask. The cell suspension was collected and centrifuged for 5 minutes at 200xg.
The supernatant was aspirated and the pellet was resuspended in 5 mL pre-warmed cell culture media. The resuspended cells were counted using the Countess Cell Counting Chamber (Invitrogen) and the cell concentration of the suspension was readjusted to 1 million live cells/mL using pre-warmed cell culture media. 25 uL/well (25,000 cells/well) of readjusted cell suspension was dispensed into Poly-D-Lysine 384-well white/clear plates (Corning, 354660) using a MultiDrop Combi (Thermo Electron Corp). To induce expression of Human SLC6A19 and TMEM27, 25 uL/well of cell culture media containing 2 μg/mL doxycycline was added to the first 23 columns of each plate resulting in a final concentration of […] doxycycline. 25 μL/well of cell culture media was added to the last column of each plate, to act as negative control wells for Human SLC6A19 and TMEM27 expression. Assay plates were then incubated (humidified, 37° C. with 5% CO2) for 18 hours. After incubation, the media was aspirated and the wells were washed 4 times with pre-warmed HBSS (Sigma-Aldrich, H8264-1L) using an Apricot S-Pipette S2 (Apricot Designs), such that 5 uL/well HBSS was remaining at the end of each wash. […] At this step, the final in-well DMSO concentration in the assay plate is 0.5%. All compounds were plated in a duplicate 8-point dilution series that consisted of 3-fold dilutions. […] Afterwards, 15 uL/well of 3.2 mM hot:cold leucine solution (1:15000 ratio of L-[3,4,5-3H(N)] Leucine (Perkin Elmer, NET460001MC) to L-Leucine (Sigma-Aldrich, L8912-25G) diluted with HBSS (Sigma-Aldrich, H8264-1L)) was added using the Viaflo 384 (Integra), for a final concentration of 1.6 mM hot:cold leucine solution. The plates were then incubated (humidified, 37° C. with 5% CO2) for 20 minutes to conduct the uptake reaction. Immediately after the incubation, the plates were washed 4 times with HBSS (Sigma-Aldrich, H8264-1L) using the ELx405 Microplate Washer (Biotek) to terminate the uptake reaction. After the washes, 50 uL/well Ultima Gold Scintillation Cocktail (Perkin Elmer, 6013326) was added to each well using the Viaflo 384 (Integra). The plates were then incubated (humidified, 37° C. with 5% CO2) on a plate shaker at 200 rpm for 2 hours. After incubation, the plates were removed from the shaker and kept at room temperature for 15 minutes.
Liquid scintillation analysis was performed using the MicroBeta2 Microplate Counter (Perkin Elmer). Activity (%) was derived by normalizing the average of positive control compound treated wells to 0% and the average of DMSO (negative control) wells to 100%. Collaborative Drug Discovery software was used for graphing data.

IC50	SMILES
515 nM	CN(C(=O)NCc1cc2cc(Cl)ccc2[nH]1)[C@@H]1CCCN(C(=O)C2CCO2)C1 (stereo partly drawn) [Compound 116, 3-((5-chloro-1H-indol-2-yl)methyl)-1-methyl-1-((3R)-1-(oxetane-2-carbonyl)piperidin-3-yl)urea]
1620 nM	CN(C(=O)NCc1cc2cc(Cl)ccc2[nH]1)[C@@H]1CCCN(C(=O)C2(C)CCC2)C1 [Compound 118, (R)-3-((5-chloro-1H-indol-2-yl)methyl)-1-methyl-1-(1-(1-methylcyclobutane-1-carbonyl)piperidin-3-yl)urea]
126 nM	CCNC(=O)N1CCC[C@@H](N(C)C(=O)NCc2cc3cc(Cl)ccc3[nH]2)C1 [Compound 209, (R)-3-(3-((5-chloro-1H-indol-2-yl)methyl)-1-methylureido)-N-ethylpiperidine-1-carboxamide]
1360 nM	CN(C(=O)NCc1cc2cc(Cl)ccc2[nH]1)[C@@H]1CCCN(C(=O)NC2CCC2)C1 [Compound 211, (R)-3-(3-((5-chloro-1H-indol-2-yl)methyl)-1-methylureido)-N-cyclobutylpiperidine-1-carboxamide]
804 nM	CC(C)NC(=O)N1CCC[C@@H](N(C)C(=O)NCc2cc3cc(Cl)ccc3[nH]2)C1 [Compound 213, (R)-3-(3-((5-chloro-1H-indol-2-yl)methyl)-1-methylureido)-N-isopropylpiperidine-1-carboxamide]

Continued, compound first:

SMILES	IC50
CC1CC(C(=O)N2CCC[C@@H](N(C)C(=O)NCc3cc4cc(Cl)ccc4[nH]3)C2)C1 (stereo partly drawn) [Compound 117, (R)-3-((5-chloro-1H-indol-2-yl)methyl)-1-methyl-1-(1-(3-methylcyclobutane-1-carbonyl)piperidin-3-yl)urea]	608 nM
CN(C(=O)NCc1cc2cc(Cl)ccc2[nH]1)[C@@H]1CCCN(C(=O)Cn2cc(CCN)nn2)C1 [Compound 134, (R)-1-(1-(2-(4-(2-aminoethyl)-1H-1,2,3-triazol-1-yl)acetyl)piperidin-3-yl)-3-((5-chloro-1H-indol-2-yl)methyl)-1-methylurea]	3770 nM
CN(C(=O)NCc1cc2cc(Cl)ccc2[nH]1)[C@@H]1CCCN(C(=O)Cc2cnco2)C1 [Compound 205, (R)-3-((5-chloro-1H-indol-2-yl)methyl)-1-methyl-1-(1-(2-(oxazol-5-yl)acetyl)piperidin-3-yl)urea]	444 nM
CC(=O)N1CCC[C@@H](N(C)C(=O)NCCc2ccc(Cl)c(-c3cc4ccccc4[nH]3)c2)C1 [Compound 206, (R)-1-(1-acetylpiperidin-3-yl)-3-(4-chloro-3-(1H-indol-2-yl)phenethyl)-1-methylurea]	441 nM
CC(=O)N1CCC[C@@H](N(C)C(=O)NCCc2cc(-c3cc4ccccc4[nH]3)c(Cl)cc2Cl)C1 [Compound 207, (R)-1-(1-acetylpiperidin-3-yl)-3-(2,4-dichloro-5-(1H-indol-2-yl)phenethyl)-1-methylurea]	715 nM
CN(C)C(=O)N1CCC[C@@H](N(C)C(=O)NCc2cc3cc(Cl)ccc3[nH]2)C1 [Compound 208, (R)-3-(3-((5-chloro-1H-indol-2-yl)methyl)-1-methylureido)-N,N-dimethylpiperidine-1-carboxamide]	418 nM
CN(C(=O)NCc1cc2cc(Cl)ccc2[nH]1)[C@@H]1CCCN(C(=O)NCC(F)(F)F)C1 [Compound 210, (R)-3-(3-((5-chloro-1H-indol-2-yl)methyl)-1-methylureido)-N-(2,2,2-trifluoroethyl)piperidine-1-carboxamide]	892 nM
CC(=O)N1CCC[C@@H](N(C)C(=O)NCc2cc3cc(C(F)(F)F)ccc3[nH]2)C1 [Compound 212, (R)-1-(1-acetylpiperidin-3-yl)-1-methyl-3-((5-(trifluoromethyl)-1H-indol-2-yl)methyl)urea]	259 nM
CC(=O)N1CCC[C@@H](N(C)C(=O)NCc2cc3ccc(C)cc3[nH]2)C1 [Compound 214, (R)-1-(1-acetylpiperidin-3-yl)-1-methyl-3-((6-methyl-1H-indol-2-yl)methyl)urea]	1290 nM
